Data as given in PubChem BioAssay (NCI).
“And” between values parts separate entries of the source, which are not always exact repeats. Identical values can stand only once.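 Step 1: Grow cells in 96-well plates. Step 2: Expose to compound for 48 hours at 5 concentrations. Step 3: Interpolate endpoints linearly; if unreached, use highest concentration. Here, GI50 denotes the concentration required for 50% inhibition of growth. TGI denotes the concentration required for complete inhibition of growth.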

Key:
Experiment in all cases: inhibition of tumour cell growth, NCI panel, 48 h
PC-3 prostate = system: PC-3 prostate
HOP-92 NSCLC = system: HOP-92 NSCLC
NCI-H226 lung = system: NCI-H226 lung
SF-295 CNS = system: SF-295 CNS
M14 melanoma = system: M14 melanoma
OVCAR-4 ovarian = system: OVCAR-4 ovarian
CCRF-CEM leukemia = system: CCRF-CEM leukemia
OVCAR-8 ovarian = system: OVCAR-8 ovarian
IGROV1 ovarian = system: IGROV1 ovarian
MDA-MB-435 = system: MDA-MB-435

Compound | GI50 (PC-3 prostate) | TGI (PC-3 prostate) | GI50 (HOP-92 NSCLC) | TGI (HOP-92 NSCLC) | GI50 (NCI-H226 lung) | TGI (NCI-H226 lung) | GI50 (SF-295 CNS) | TGI (SF-295 CNS) | GI50 (M14 melanoma) | TGI (M14 melanoma) | GI50 (OVCAR-4 ovarian) [µM] | TGI (OVCAR-4 ovarian) | GI50 (CCRF-CEM leukemia) | TGI (CCRF-CEM leukemia) | GI50 (OVCAR-8 ovarian) | TGI (OVCAR-8 ovarian) | GI50 (IGROV1 ovarian) | TGI (IGROV1 ovarian) | GI50 (MDA-MB-435) | TGI (MDA-MB-435)
CCN(CC)CCCC(C)N=c1cc(Nc2cc(=NC(C)CCCN(CC)CC)c3cc(OC)ccc3o2)oc2ccc(OC)cc12 (stereo not given) | 1.49 µM | 6.8 µM | 0.513 µM | 3.15 µM | 0.58 µM | 2.37 µM | 1.1 µM | 3.14 µM | 0.967 µM | 1.79 µM | 0.723 | 1.71 µM | 2 µM | 16.3 µM | 0.441 µM | 3.78 µM | 1.89 µM | 8.72 µM | 0.871 µM | 1.68 µM
C=CN(C)S(C)(=O)=O | > 100 µM | > 100 µM | > 100 µM | > 100 µM | > 100 µM | > 100 µM | > 100 µM | > 100 µM | > 100 µM | > 100 µM | > 100 | > 100 µM | > 100 µM | > 100 µM | > 100 µM | > 100 µM | > 100 µM | > 100 µM | > 100 µM | > 100 µM
Cc1cc(O)cc(C)c1/C=C/c1cncc(-c2nn[nH]n2)c1 | > 25 µM | > 25 µM | > 25 µM | > 25 µM | > 25 µM | > 25 µM | > 25 µM | > 25 µM | > 25 µM | > 25 µM | > 25 | > 25 µM | > 25 µM | > 25 µM | > 25 µM | > 25 µM | > 25 µM | > 25 µM | > 25 µM | > 25 µM
C[C@H](CCCNCCCNCCCN)[C@H]1CC[C@H]2[C@@H]3[C@H](OCCCN)C[C@H]4C[C@H](OCCCN)CC[C@]4(C)[C@H]3C[C@H](OCCCN)[C@]12C | 18.3 µM | > 100 µM | 0.584 µM | 11.9 µM |  | > 76.7 µM | 1.33 µM | 23.9 µM | 0.874 µM | 3.88 µM | > 45.2 | > 100 µM | 3.82 µM | 31.1 µM | 2.27 µM | > 55.8 µM | 0.421 µM | 8.86 µM | 0.34 µM | 1.14 µM
O=c1oc2ccc(-n3c(=O)c4ccccc4c4ccccc4c3=O)cc2c2ccccc12 |  | > 100 µM |  | 84.5 µM |  | > 100 µM |  | > 100 µM |  | > 100 µM |  | > 100 µM |  | > 100 µM |  | > 100 µM |  | > 100 µM |  | > 100 µM
O=C(NO)c1ccc(Cn2c(=O)n(-c3ccccc3F)c(=O)c3ccccc32)cc1 | 1.7 µM | 4.31 µM | 1.77 µM | 4.75 µM | 1.43 µM | 3.27 µM | 1.66 µM | 3.29 µM | 1.53 µM | 3.05 µM | 1.9 | 12.9 µM | 2.07 µM | > 100 µM | 1.05 µM | 5.11 µM |  |  | 1.55 µM | 3.26 µM
Cc1ncsc1-c1ccc(CNC(=O)[C@@H]2C[C@@H](O)CN2C(=O)[C@@H](NC(=O)C2(C#N)CC2)C(C)(C)C)cc1 | > 100 µM | > 100 µM | 70.4 µM | > 100 µM | > 100 µM | > 100 µM | > 100 µM | > 100 µM |  |  | 80.7 | > 100 µM | > 100 µM | > 100 µM | > 100 µM | > 100 µM | > 100 µM | > 100 µM | > 100 µM | > 100 µM
C=C1C(=O)O[C@@H]2C1C[C@@H](O)C(=C)CC/C=C(\C)CCC[C@H](C)[C@H]2OC(C)=O (stereo not given in full) | 6.1 µM | 22.9 µM | 1.09 µM | 3.76 µM | 3.37 µM | 12.8 µM | 17.1 µM | 31.9 µM |  |  | 4.65 | 28 µM | 2.34 µM | 5.05 µM | 15.4 µM | 45.4 µM | 5.17 µM | 19.5 µM | 12.9 µM | 26.7 µM
CC(=O)[C@@]1(O)[C@H](C)C[C@H]2[C@@H]3C=C(C)C4=Cc5c(cnn5-c5ccccc5)C[C@]4(C)[C@H]3[C@@H](O)C[C@@]21C | 2.06 µM | 10.1 µM | 2.42 µM | 14 µM | 2.5 µM | 15.7 µM | 1.73 µM | 3.53 µM | 2.84 µM | 13.6 µM | 3.85 | 31.1 µM |  | 1.72 µM | 2.8 µM | 13.8 µM | 2.64 µM | 11 µM | 2.44 µM | 8.7 µM
CC(=O)Oc1cc2c(OC(C)=O)c(-c3c(C)cc4c(C(C)C)c(OC(C)=O)c(OC(C)=O)cc4c3OC(C)=O)c(C)cc2c(C(C)C)c1OC(C)=O | 5.48 µM and 5.87 µM and 9.87 µM | 10.9 µM and 12.1 µM and 23.2 µM | 1.27 µM and 7.69 µM and 5.33 µM | 4.11 µM and 18 µM and 16.7 µM | 1.14 µM and 4.72 µM and 8.69 µM | 2.58 µM and 11.1 µM and 20.9 µM | 8.78 µM and 5.99 µM and 10.7 µM | 26.7 µM and 12.5 µM and 30.6 µM | 6.75 µM and 5.89 µM and 8.15 µM | 18.5 µM and 12.5 µM and 19.3 µM |  | 32 µM and > 69.6 µM and > 84.2 µM | 0.707 µM and 5.41 µM and 5.98 µM | 4.04 µM and 15.6 µM and 20.7 µM | 6.44 µM and 5.89 µM and 11.8 µM | 19.1 µM and 17.6 µM and > 57.6 µM | 16.2 µM and 3.27 µM and 25.8 µM | 33.9 µM and 9.86 µM and 57.5 µM | 8.13 µM and 6.8 µM and 10.1 µM | 26.8 µM and 14.1 µM and 22.7 µM
CCCCCCc1nc2nc(Cl)c(Cl)nc2[nH]1 | 4.68 µM | > 100 µM | 1.99 µM | 7.4 µM | 7.21 µM | > 100 µM |  |  | > 100 µM | > 100 µM | 6.33 | > 100 µM | 5.8 µM | > 100 µM | > 100 µM | > 100 µM | 18.9 µM | > 100 µM | 8.68 µM | > 100 µM
O=C(NCc1ccncc1)C12CC3CC(C1)CC(c1ccc(Cl)cc1)(C3)C2 | 8.86 µM | 23.1 µM | 12 µM | 25.2 µM | 12 µM | 31.1 µM | 12.7 µM | 27.3 µM | 12.7 µM | 26.9 µM | 10.9 | 32.8 µM | 17.7 µM | 45 µM |  |  | 13.3 µM | 29.3 µM | 12.7 µM | 25.3 µM
CN(C)CCCNC(=O)c1cncnc1Nc1ccc(OCc2cccc(F)c2)c(Cl)c1 | 1.58 µM | 3.11 µM | 1.33 µM | 3.16 µM | 4.27 µM | 19.6 µM | 1.7 µM | 3.1 µM | 1.71 µM | 3.38 µM | 1.83 | 4.36 µM | 1.82 µM | 3.94 µM |  |  | 1.78 µM | 3.33 µM | 1.8 µM | 3.33 µM
